For one assay, the target named is T1, recombinant human estrone sulfatase (Homo sapiens, UniProt P08842).
T1 sequence (P08842 22-583): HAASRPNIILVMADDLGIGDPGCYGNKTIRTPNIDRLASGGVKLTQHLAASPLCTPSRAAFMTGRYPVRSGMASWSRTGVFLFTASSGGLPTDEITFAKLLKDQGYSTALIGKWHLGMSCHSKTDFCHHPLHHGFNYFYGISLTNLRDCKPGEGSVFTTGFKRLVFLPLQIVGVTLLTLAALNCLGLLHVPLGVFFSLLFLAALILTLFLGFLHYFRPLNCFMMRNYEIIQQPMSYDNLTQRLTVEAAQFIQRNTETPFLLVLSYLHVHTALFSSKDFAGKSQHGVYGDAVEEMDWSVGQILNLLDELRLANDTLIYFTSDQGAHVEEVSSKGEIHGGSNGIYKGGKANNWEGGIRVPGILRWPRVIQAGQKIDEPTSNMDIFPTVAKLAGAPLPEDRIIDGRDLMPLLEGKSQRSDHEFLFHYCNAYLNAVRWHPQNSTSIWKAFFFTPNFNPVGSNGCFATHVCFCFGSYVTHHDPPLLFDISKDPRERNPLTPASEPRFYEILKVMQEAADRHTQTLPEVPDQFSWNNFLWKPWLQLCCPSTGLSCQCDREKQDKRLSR
In words: Estrone sulfatase (steroid sulfatase) inhibition test (Method A), [3H]-estrone sulfate substrate. It is filed as biochemical. The following applies: [6,7-3H]-estrone sulfate 6.67 μmol/L, pH 7.5, 37° C., 30 minutes, read-out: Inhibitory Activity against Steroid Sulfatase IC50. As for the experimental part: Estrone Sulfatase (Steroid Sulfatase) Inhibition Test (Method A)
[6,7-^3H]-Estrone sulfate (final concentration 6.67 μmol/L; 0.025 μCi/tube), recombinant human estrone sulfatase (33 ng/tube) and an estra-1,3,5(10)-triene derivative of each test concentration (the estra-1,3,5(10)-triene derivative was dissolved in 0.003 mL of DMSO) were added to a phosphate buffer (pH 7.5, final volume 0.15 mL) containing 0.25 mol/L of sucrose and 0.04 mol/L of nicotinamide, and the mixture was subjected to enzymatic reaction at 37° C. for 30 minutes. The recombinant human estrone sulfatase used herein was prepared from CHO (Chinese hamster ovary) cells, which were transfected with a human estrone sulfatase gene, after partial purification. After the enzymatic reaction, toluene (0.5 mL) was added to the reaction mixture followed by stirring, and the mixture was centrifuged at 9000 rpm for 5 minutes. The toluene extract layer was taken out, and the radioactivity of the [^3H]-estrone formed therein was measured with a liquid scintillation counter. The measurement was carried out at one time by duplication, and the assay fluctuation was 10% or less. The enzymatic reaction in the absence of the test compound was also carried out simultaneously. The inhibitory activity against estrone sulfatase of the test compound of each concentration was calculated according to the equation shown below. Inhibitory Activity against Estrone Sulfatase (%)=100−{100×[(A−C)/(B−C)]} wherein; • A: the amount of [^3H]-estrone formed in the presence of the test compound • B: the amount of [^3H]-estrone formed in the absence of the test compound • C: the amount of [^3H]-estrone formed in the absence of both of the recombinant human estrone sulfatase and the test compound.
(§1) The inhibitory activity against estrone sulfatase of the estra-1,3,5(10)-triene derivative tested can be designated by the concentration (IC50) of the derivative that reduces the estrone sulfatase activity to a half of that in the control system not containing the test compound.
As a reminder, the IC50 is the midpoint of a concentration-inhibition curve. For `CC12CCC3c4ccc(OS(N)(=O)=O)cc4CCC3C1CC=C2C(=O)N1CCCC1` (stereo not drawn) [Compound 1], the IC50 came to 4.4 nM.

For the compound `CC12CCC3c4ccc(OS(N)(=O)=O)cc4CCC3C1CC=C2C(=O)NC1CCCC1` (stereo not drawn) [Compound 7], the IC50 was determined as 1 nM.

On to `CC12CCC3c4ccc(OS(N)(=O)=O)cc4CCC3C1CC=C2C(=O)NCC1CC1` (stereo not drawn) [Compound 9], for which the IC50 turned out to be 3.6 nM.

For `C=CCNC(=O)C1=CCC2C3CCc4cc(OS(N)(=O)=O)ccc4C3CCC12C` (stereo not drawn) [Compound 10], the IC50 amounted to 5.6 nM.

`COC(=O)CCCCCNC(=O)C1=CCC2C3CCc4cc(OS(N)(=O)=O)ccc4C3CCC12C` (stereo not drawn) [Compound 14]: the IC50 turned out to be 10 nM.

As for `COCCNC(=O)C1=CCC2C3CCc4cc(OS(N)(=O)=O)ccc4C3CCC12C` (stereo not drawn) [Compound 18], the IC50 was found to be 2.8 nM.

As for `CC12CCC3c4ccc(OS(N)(=O)=O)cc4CCC3C1CC=C2C(=O)NCCCCO` (stereo not drawn) [Compound 22], the IC50 was determined as 9.8 nM.

As to `COC(=O)C(NC(=O)C1=CCC2C3CCc4cc(OS(N)(=O)=O)ccc4C3CCC12C)C(C)C` (stereo not drawn) [Compound 29], the IC50 came out at 4.5 nM.

`COC(=O)C1CCCN1C(=O)C1=CCC2C3CCc4cc(OS(N)(=O)=O)ccc4C3CCC12C` (stereo not drawn) [Compound 33]: the IC50 came to 5.1 nM.

`CC12CCC3c4ccc(OS(N)(=O)=O)cc4CCC3C1CC=C2C(=O)Nc1ccccc1` (stereo not drawn) [Compound 34]: the IC50 is 10 nM.

Regarding `CC12CCC3c4ccc(OS(N)(=O)=O)cc4CCC3C1CC=C2C(=O)Nc1cnccn1` (stereo not drawn) [Compound 40], the IC50 worked out at 9.4 nM.

With `CC12CCC3c4ccc(OS(N)(=O)=O)cc4CCC3C1CCC2C(=O)N1CCCC1` (stereo not drawn) [Compound 73], the IC50 worked out at 6 nM.

As for `COCCNC(=O)C1CCC2C3CCc4cc(OS(N)(=O)=O)ccc4C3CCC12C` (stereo not drawn) [Compound 76], the IC50 stood at 15.5 nM.

In the case of `CCCNC(=O)C=C1CCC2C3CCc4cc(OS(N)(=O)=O)ccc4C3CCC12C` (stereo not drawn) [Compound 81], the IC50 is 6.2 nM.

The next assay concerns the target T1, recombinant human estrone sulfatase. As to the kind of experiment: Estrone sulfatase (steroid sulfatase) inhibition test (Method B), 4-methylumbelliferyl sulfate substrate. It is filed as biochemical. The conditions noted are these: 4-methylumbelliferyl sulfate 0.3 mmol/L, pH 7.5, 37° C., 1 hour, read-out: Inhibitory Activity against Steroid Sulfatase IC50. As for the experimental part:
Estrone Sulfatase (Steroid Sulfatase) Inhibition Test (Method B)
4-Methylumbelliferyl sulfate (final concentration 0.3 mmol/L), recombinant human estrone sulfatase (7.8 ng/well) and an estra-1,3,5(10)-triene derivative of each test concentration (the estra-1,3,5(10)-triene derivative was dissolved in 0.001 mL of DMSO) were added to a phosphate buffer (pH 7.5, final volume 0.1 mL) containing 0.28 mol/L of sucrose and 0.04 mol/L of nicotinamide, and the mixture was subjected to enzymatic reaction at 37° C. for 1 hour. The recombinant human estrone sulfatase used herein was prepared from CHO (Chinese hamster ovary) cells, which were transfected with a human estrone sulfatase gene, after partial purification. After the enzymatic reaction, an aqueous solution of 2 mol/L glycine-sodium hydroxide (pH 10.3, 0.13 mL) was added thereto followed by stirring. Using a fluorescent plate reader (Cyto Fluor II), the fluorescent intensity of 4-methylumbelliferone formed in the system was measured. The measurement was carried out at one time by duplication, and the assay fluctuation was 10% or less. The enzymatic reaction in the absence of the test compound was also carried out simultaneously. The inhibitory activity against estrone sulfatase of the test compound of each concentration was calculated according to the equation shown below. Inhibitory Activity against Estrone Sulfatase (%)=100−[100×(A/B)] wherein; • A: the amount of 4-methylumbelliferone formed in the presence of the test compound, • B: the amount of 4-methylumbelliferone formed in the absence of the test compound.
as §1
Turning to `CC12CCC3c4ccc(OS(N)(=O)=O)cc4CCC3C1CC=C2C(=O)N1CCN(c2ccccn2)CC1` (stereo not drawn) [Compound 5], the IC50 was found to be 3.7 nM.

Take `CC(C)(CO)NC(=O)C1=CCC2C3CCc4cc(OS(N)(=O)=O)ccc4C3CCC12C` (stereo not drawn) [Compound 23]: the 50% inhibitory concentration (IC50) is 26 nM.

For `CC12CCC3c4ccc(OS(N)(=O)=O)cc4CCC3C1CC=C2C(=O)NCc1ccc(C(=O)O)cc1` (stereo not drawn) [Compound 37], the IC50 is 6 nM.

With `COc1ccc(NC(=O)C2=CCC3C4CCc5cc(OS(N)(=O)=O)ccc5C4CCC23C)cn1` (stereo not drawn) [Compound 39], the IC50 was 3.7 nM.

Turning to `COc1ccnc(CNC(=O)C2=CCC3C4CCc5cc(OS(N)(=O)=O)ccc5C4CCC23C)c1` (stereo not drawn) [Compound 47], the IC50 came to 5 nM.

For `Cc1cnc(CNC(=O)C2=CCC3C4CCc5cc(OS(N)(=O)=O)ccc5C4CCC23C)cn1` (stereo not drawn) [Compound 49], the IC50 is 24.2 nM.

On to `CC12CCC3c4ccc(OS(N)(=O)=O)cc4CCC3C1CC=C2C(=O)NCCCc1ccncc1` (stereo not drawn) [Compound 55], for which the IC50 turned out to be 4.5 nM.

With `CC12CCC3c4ccc(OS(N)(=O)=O)cc4CCC3C1CC=C2C(=O)Nc1ccon1` (stereo not drawn) [Compound 58], the IC50 came out at 11 nM.

As to `CCn1nccc1NC(=O)C1=CCC2C3CCc4cc(OS(N)(=O)=O)ccc4C3CCC12C` (stereo not drawn) [Compound 62], the IC50 was 8.9 nM.

On to `CC12CCC3c4ccc(OS(N)(=O)=O)cc4CCC3C1CC=C2C(=O)NNc1ccccn1` (stereo not drawn) [Compound 69], for which the IC50 was found to be 6 nM.

Take `COCCOCCOC(=O)C1=CCC2C3CCc4cc(OS(N)(=O)=O)ccc4C3CCC12C` (stereo not drawn) [Compound 71]: the IC50 came to 17 nM.

As to `CCOC(=O)CC1CCC2C3CCc4cc(OS(N)(=O)=O)ccc4C3CCC12C` (stereo not drawn) [Compound 83], the IC50 was determined as 12 nM.

Regarding `CCCNC(=O)CC1CCC2C3CCc4cc(OS(N)(=O)=O)ccc4C3CCC12C` (stereo not drawn) [Compound 85], the IC50 amounted to 10.3 nM.

In the case of `CC12CCC3c4ccc(OS(N)(=O)=O)cc4CCC3C1CCC2CC(=O)N1CCOCC1` (stereo not drawn) [Compound 88], the IC50 is 11 nM.

In the case of `CC12CCC3c4ccc(OS(N)(=O)=O)cc4CCC3C1CC=C2c1cccnc1` (stereo not drawn) [Compound 90], the IC50 worked out at 12 nM.

In the case of `Cc1coc(C2=CCC3C4CCc5cc(OS(N)(=O)=O)ccc5C4CCC23C)n1` (stereo not drawn) [Compound 92], the IC50 was found to be 21 nM.

These data come from patent US6953785B2, “Estra-1,3,5(10)-triene derivatives” (priority 2000, dated 2005).
